“Also recorded” adds a separate entry of the source.
What was measured:
[1] = test system: carrageenan-evoked hyperalgesia; assay: Carrageenan model of inflammation, thermal hyperalgesia (paw withdrawal latency); type: in vivo; details: rat; for reversal of the hypoalgesia by naloxone (opioid receptor antagonist): drug i.pl. at 1 hour, naloxone chloride or naloxone methiodide s.c. at 24 hours after carrageenan; for effect on carrageenan-evoked thermal hyperalgesia (paw withdrawal latency): intraplantar (local) injection in the inflamed paw 1 hour after carrageenan
Description: Rats received a subcutaneous injection of carrageenan (2% in saline, 100 μl) in the right hindpaw (intraplantar injection). Drug or vehicle were administered intraplantarly (i.pl., 50 μl) 1 hour after carrageenan injection and behavioral testing was performed at various time points. Nociceptive threshold responding to heat was determined as described before (Williams et al., 1990; Wisden et al., 1990: Jiang et al., 2006). Briefly, rat was placed in a device that held the body without restraining the head and legs. Noxious heat stimulation was carried out by immersing the hindpaw up to the ankle joint into a slowly stirred water bath at 47.5° C. while holding the animal with the device. […] Paw withdrawal latency for any test time point was measured twice at 3-min intervals and the mean values were calculated. Baseline latency was measured 10 min before drug or vehicle administration.
Effects of ketanserin on carrageenan-evoked hyperalgesia are illustrated in FIG. 1. Paw withdrawal latencies in seconds were measured in plantar test at the various time points. Data were normalized as percentage of pretreatment baseline (100%) and expressed as the mean ±SEM (standard error of mean).
Paw withdrawal latencies in seconds were determined in plantar test at the various time points. Data were normalized as percentage of pretreatment baseline (100%) and expressed as the mean ±SEM. Carrageenan and ketanserin (20 μg) were given i.pl. into unilateral hindpaw at 0 and 1 hour, respectively.
Paw withdrawal latencies in seconds were examined at the various time points. Data were normalized as percentage of pretreatment baseline (100%) and expressed as the mean ±SEM.
Carrageenan and […] (30 μg) were given i.pl. into unilateral hindpaw at 0 and 1 hour, respectively. Then naloxone chloride (5 mg/ml/kg) or naloxone methiodide (10 mg/ml/kg) or saline (1 ml/kg) was injected s.c. (subcutaneous injection) at 24hours after carrageenan. Paw withdrawal latencies in seconds were measured at the various time points.
Carrageenan (2%, 100 μl) was administered i.pl. at 0 hour and saline (50 μl, i.pl.) or ketanserin (2 μg, i.pl.)+WAY100635 (3 μg, i.pl.) at 1 hour. The results are illustrated in FIG. 5. Paw withdrawal latencies in seconds were examined at the various time points.
Carrageenan model—See those described before.

[2] = test system: carrageenan-evoked hyperalgesia; assay: as above; type: in vivo; details: rat; for effect on thermal hyperalgesia in carrageenan model (paw withdrawal latency): subcutaneous (systemic) injection 1 hour after carrageenan; for effect on inflammatory hyperalgesia at higher dose (FIG. 7D): subcutaneous injection at 1 hour, doses higher than those in FIG. 7C
[3] = Animal study of blood pressure and heart rate; type: in vivo; details: subcutaneous injection at 0.5 mg/kg
neuropathic pain (SNL) = assay: Neuropathic pain model (spinal nerve ligation), thermal threshold of the hindpaw; type: in vivo, rat
Description: PWL responding to heat stimulus ipsilaterally was measured.
Paw withdrawal latency was measured.

| Compound | reversal of the hypoalgesia by naloxone (opioid receptor antagonist) [1] | effect on carrageenan-evoked thermal hyperalgesia (paw withdrawal latency) [1] | effect on thermal hyperalgesia in carrageenan model (paw withdrawal latency) [2] | effect on inflammatory hyperalgesia at higher dose (FIG. 7D) [2] | blood pressure [3] | heart rate [3] | reversal of the hypoalgesia by naloxone (opioid receptor antagonist) ([1]; listed as Ketanserin) | tolerance (neuropathic pain (SNL); rat neuropathic pain model, thermal, s.c. injection) | thermal nociceptive threshold in Chung's model of neuropathic pain (paw withdrawal latency) (neuropathic pain (SNL); rat, s.c. starting at day 4 after spinal nerve ligation) |
| --- | --- | --- | --- | --- | --- | --- | --- | --- | --- |
| COc1ccccc1N1CCN(CCN(C(=O)C2CCCCC2)c2ccccn2)CC1 [WAY100635] | mediated by opioid analgesia mechanism | dose-dependently produces hypoalgesia | – | – | – | – | – | – | – |
| COc1cc2nc(N3CCN(C(=O)c4ccco4)CC3)nc(N)c2cc1OC [prazosin] | – | failed to alter the carrageenan-evoked response | – | – | – | – | – | – | – |
| CC(C)NCC(O)COc1cccc2ccccc12 (stereo not drawn) [propranolol] | abolished by i.p. naloxone | prolonging in paw withdrawal latency | produces significant inhibition on the nociceptive threshold | exerted stronger effect | does not alter | does not alter | – | – | – |
| O=C(c1ccc(F)cc1)C1CCN(CCn2c(=O)[nH]c3ccccc3c2=O)CC1 [ketanserin] | abolished by i.p. naloxone | dose-dependently produces hypoalgesia; also recorded: prolonging in paw withdrawal latency | produces significant inhibition on the nociceptive threshold | exerted stronger effect | does not alter | does not alter | mediated by opioid analgesia mechanism | without tolerance | dose-dependently inhibits |

— US20110136839A1, “COMBINATION OF TWO ANALGESIC CHEMICALS” (priority 2009, published 2011)
